In one assay the target is T1, KRas G12C (Homo sapiens, UniProt P01116, G12C).
T1 construct: Biotinylated KRas (corresponding to amino acids 1-169, produced at Accelegan Inc.); biotin (biotinylated); purchased Accelegan Inc
Kind of assay: KRas binding assay, TR-FRET displacement of Cy5 labelled tracer. To be noted: 60-minute incubation at room temperature, 1% DMSO, pH 7.5. An outline of the steps:
(§1)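 Final conditions: 1% DMSO, pH 7.5 HEPES buffer, 60 min, room temperature. Protein: biotin-KRas 1-169 with terbium streptavidin. Output: IC50, four-parameter fit of POC.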

The next assay deals with T2, KRas G12S (Homo sapiens, UniProt P01116, G12S).
T2 construct: Biotinylated KRas (corresponding to amino acids 1-169, produced at Accelegan Inc.); biotin (biotinylated); purchased Accelegan Inc
T2 sequence (P01116 1-169 isoform P01116-2 G12S): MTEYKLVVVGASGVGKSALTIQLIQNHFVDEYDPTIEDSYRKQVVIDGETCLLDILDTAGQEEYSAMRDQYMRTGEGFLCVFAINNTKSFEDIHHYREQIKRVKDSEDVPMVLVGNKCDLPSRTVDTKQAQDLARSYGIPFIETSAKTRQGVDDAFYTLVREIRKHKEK
The description is as above. To be noted: 60-minute incubation at room temperature, 1% DMSO, pH 7.5. An outline of the steps:
as §1

Another assay concerns the target T3, KRas WT (Homo sapiens, UniProt P01116).
T3 construct: Biotinylated KRas (corresponding to amino acids 1-169, produced at Accelegan Inc.); biotin (biotinylated); purchased Accelegan Inc
The description is as above. To be noted: 60-minute incubation at room temperature, 1% DMSO, pH 7.5. A digest of the protocol: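 Compound competes with tracer for biotin-labelled KRas (amino acids 1-169) bound to terbium-streptavidin. Incubation runs 60 minutes at room temperature, final DMSO 1%. IC50 values derive from a 4-parameter fit.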

Assay [1] concerns the target T4, KRas-mediated phosphorylation of ERK in MKN1 cells (Homo sapiens, UniProt P01116).
T4 construct: pERK HTRF read-out
Kind of assay: Inhibition of KRas-mediated phosphorylation of ERK (HTRF), MKN1 cells. In kind it is cell-based. To be noted: MKN1 cells (KRas WT); HTRF pERK; 3 h incubation. How it is done:
Inhibition of KRas Phosphorylation of ERK (HTRF) by Exemplary Compounds of Formula (Ia) or (Ib)
Cisbio HTRF Advanced pERK Assay Catalog #64AERPEH • Cells: MKN1, PSN1 • Procedure: • 1. Day 1: Seed 6,000 cells/well −25 μl/well in 384-well white solid bottom plate; RPM1_10% FBS. Incubate overnight at 37 °C/5% CO2. • 2.

In assay [2] the target is T5, KRas-mediated phosphorylation of ERK in A549 cells (Homo sapiens, UniProt P01116, G12S).
T5 construct: pERK HTRF read-out
T5 sequence (P01116 1-188 isoform P01116-2 G12S): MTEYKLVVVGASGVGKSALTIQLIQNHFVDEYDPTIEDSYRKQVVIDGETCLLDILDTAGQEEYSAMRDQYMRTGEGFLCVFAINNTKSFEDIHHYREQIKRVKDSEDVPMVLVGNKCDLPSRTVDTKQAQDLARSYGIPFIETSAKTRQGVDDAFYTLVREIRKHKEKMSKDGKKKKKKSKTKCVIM
Nature of the assay: Inhibition of KRas-mediated phosphorylation of ERK (HTRF), A549 cells. In kind it is cell-based. To be noted: HTRF pERK, 3 h incubation.

Assay [3] concerns the target T6, KRas-mediated phosphorylation of ERK in H358 cells (Homo sapiens, UniProt P01116, G12C).
T6 construct: pERK HTRF read-out
Nature of the assay: Inhibition of KRas-mediated phosphorylation of ERK (HTRF), H358 cells. The class given is cell-based. As to conditions: HTRF pERK, 3 h incubation.

T6 sequence (P01116 1-188 isoform P01116-2 G12C): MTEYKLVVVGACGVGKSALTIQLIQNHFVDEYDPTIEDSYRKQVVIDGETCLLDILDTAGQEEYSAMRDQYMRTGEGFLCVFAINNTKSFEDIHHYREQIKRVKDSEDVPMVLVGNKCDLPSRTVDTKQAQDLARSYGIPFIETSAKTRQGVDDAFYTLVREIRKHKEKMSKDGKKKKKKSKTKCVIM
T4 sequence (P01116 1-188 isoform P01116-2): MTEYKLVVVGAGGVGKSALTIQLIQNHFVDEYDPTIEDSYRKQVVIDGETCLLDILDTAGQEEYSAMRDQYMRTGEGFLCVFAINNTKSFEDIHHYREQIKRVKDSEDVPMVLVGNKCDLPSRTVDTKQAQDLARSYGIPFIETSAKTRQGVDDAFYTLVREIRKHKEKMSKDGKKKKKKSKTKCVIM
T3 sequence (P01116 1-169 isoform P01116-2): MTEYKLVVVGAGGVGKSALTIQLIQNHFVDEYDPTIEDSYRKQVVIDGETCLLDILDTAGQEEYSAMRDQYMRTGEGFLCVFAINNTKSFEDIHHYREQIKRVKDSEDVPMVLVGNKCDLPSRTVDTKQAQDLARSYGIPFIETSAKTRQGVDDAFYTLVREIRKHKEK
T1 sequence (P01116 1-169 isoform P01116-2 G12C): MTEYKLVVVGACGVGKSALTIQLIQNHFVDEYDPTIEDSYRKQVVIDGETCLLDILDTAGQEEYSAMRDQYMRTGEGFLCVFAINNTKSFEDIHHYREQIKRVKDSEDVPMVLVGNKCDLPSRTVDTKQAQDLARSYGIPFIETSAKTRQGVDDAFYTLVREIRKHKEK

Regarding `CC(=O)N(C)C(=O)[C@H]1C[C@@H]2CN(c3nc(OC[C@@]45CCCN4C[C@H](F)C5)nc4c(F)c(-c5ccc(F)c6sc(N)c(C#N)c56)c(Cl)cc34)C[C@@H]2C1` (atropisomer, axis not shown; (aR)) [Example 236, (3aR,5S,6aS)-N-acetyl-2-((S)-7-(2-amino-3-cyano-7-fluorobenzo[b]thiophen-4-yl)-6-chloro-8-fluoro-2-(((2R,7aS)-2-fluorotetrahydro-1H-pyrrolizin-7a(5H)-yl)methoxy)quinazolin-4-yl)-N-methyloctahydrocyclopenta[c]pyrrole-5-carboxamide], the IC50 was 7 nM on KRas G12C; 15 nM at KRas G12S; 10 nM at KRas WT; 41 nM in assay [1]; 104 nM in assay [2]; 108 nM in assay [3].

As for `Cc1ccn(C(=O)[C@H]2CCCN(c3nc(OC[C@@]45CCCN4C[C@H](F)C5)nc4c(F)c(-c5ccc(F)c6sc(N)c(C#N)c56)c(Cl)cc34)CC2)n1` (atropisomer, axis not shown; (aS)) [Example 170, 2-amino-4-((S)-6-chloro-8-fluoro-2-(((2R,7aS)-2-fluorotetrahydro-1H-pyrrolizin-7a(5H)-yl)methoxy)-4-((S)-4-(3-methyl-1H-pyrazole-1-carbonyl)azepan-1-yl)quinazolin-7-yl)-7-fluorobenzo[b]thiophene-3-carbonitrile], the 50% inhibitory concentration (IC50) was determined as 2 nM at KRas G12C; 2 nM on KRas G12S; 9 nM at KRas WT; 53 nM in assay [1]; 2 nM in assay [2]; 3 nM in assay [3].

Regarding `Cc1ccn(C(=O)[C@@H]2CCCN(c3nc(OC[C@@]45CCCN4C[C@H](F)C5)nc4c(F)c(-c5ccc(F)c6sc(N)c(C#N)c56)c(Cl)cc34)CC2)n1` (atropisomer, axis not shown; (aS)) [Example 172, 2-amino-4-((S)-6-chloro-8-fluoro-2-(((2R,7aS)-2-fluorotetrahydro-1H-pyrrolizin-7a(5H)-yl)methoxy)-4-((R)-4-(3-methyl-1H-pyrazole-1-carbonyl)azepan-1-yl)quinazolin-7-yl)-7-fluorobenzo[b]thiophene-3-carbonitrile], the 50% inhibitory concentration (IC50) in assay [1] is 199 nM; in assay [2], 35 nM; in assay [3] it was 50 nM.

Consider `CCc1c(F)ccc2cc(O)cc(-c3ncc4c(N5CCC(C=O)CC5)nc(OC[C@@]56CCCN5C[C@H](F)C6)nc4c3F)c12` [Example 15, 1-(7-(8-ethyl-7-fluoro-3-hydroxynaphthalen-1-yl)-8-fluoro-2-(((2R,7aS)-2-fluorotetrahydro-1H-pyrrolizin-7a(5H)-yl)methoxy)pyrido[4,3-d]pyrimidin-4-yl)piperidine-4-carbaldehyde], for which the half-maximal inhibitory concentration (IC50) at KRas G12C was less than 2 nM; on KRas G12S, 9 nM; on KRas WT, 11 nM; in assay [2], 149 nM; in assay [3] it was 22 nM.

On to `CCc1c(F)ccc2cc(O)cc(-c3ncc4c(N5CCC(C(=O)Oc6ccc(F)c(F)c6)CC5)nc(OC[C@@]56CCCN5C[C@H](F)C6)nc4c3F)c12` [Example 40, 3,4-difluorophenyl 1-(7-(8-ethyl-7-fluoro-3-hydroxynaphthalen-1-yl)-8-fluoro-2-(((2R,7aS)-2-fluorotetrahydro-1H-pyrrolizin-7a(5H)-yl)methoxy)pyrido[4,3-d]pyrimidin-4-yl)piperidine-4-carboxylate], for which the IC50 at KRas G12C was 9 nM; on KRas G12S, 1250 nM; on KRas WT it was 729 nM; in assay [2], more than 10000 nM; in assay [3], 913 nM.

In the case of `CCc1c(F)ccc2cc(O)cc(-c3ncc4c(N5CCC(C(=O)n6ccc(C)n6)C5)nc(OC[C@@]56CCCN5C[C@H](F)C6)nc4c3F)c12` (stereo partly drawn) [Example 56, (1-(7-(8-ethyl-7-fluoro-3-hydroxynaphthalen-1-yl)-8-fluoro-2-(((2R,7aS)-2-fluorotetrahydro-1H-pyrrolizin-7a(5H)-yl)methoxy)pyrido[4,3-d]pyrimidin-4-yl)pyrrolidin-3-yl)(3-methyl-1H -pyrazol-1-yl)methanone], the half-maximal inhibitory concentration (IC50) on KRas G12C is 13 nM; at KRas G12S it was 17 nM; on KRas WT, 69 nM; in assay [2], 66 nM; in assay [3] it was 2800 nM.

For the molecule `CCc1c(F)ccc2cc(O)cc(-c3ncc4c(N5CCN(C(=O)n6cccn6)CC5)nc(OC[C@@]56CCCN5C[C@H](F)C6)nc4c3F)c12` [Example 60, (4-(7-(8-ethyl-7-fluoro-3-hydroxynaphthalen-1-yl)-8-fluoro-2-(((2R,7aS)-2-fluorotetrahydro-1H-pyrrolizin-7a(5H)-yl)methoxy)pyrido[4,3-d]pyrimidin-4-yl)piperazin-1-yl)(1H-pyrazol-1-yl) methanone], the IC50 stood at 76 nM at KRas G12C; 115 nM on KRas G12S; 24 nM on KRas WT; 2350 nM in assay [2]; 450 nM in assay [3].

Turning to `CCc1c(F)ccc2cc(O)cc(-c3ncc4c(N5CCC(C(=O)N(C)c6ccccn6)CC5)nc(OC[C@@]56CCCN5C[C@H](F)C6)nc4c3F)c12` [Example 62, 1-(7-(8-ethyl-7-fluoro-3-hydroxynaphthalen-1-yl)-8-fluoro-2-(((2R,7aS)-2-fluorotetrahydro-1H-pyrrolizin-7a(5H)-yl)methoxy)pyrido[4,3-d]pyrimidin-4-yl)-N-methyl-N-(pyridin-2-yl)piperidine-4-carboxamide], the IC50 at KRas G12C came out at 619 nM; at KRas G12S it was 6330 nM; at KRas WT it was 64 nM; in assay [2], 7060 nM; in assay [3], 8390 nM.

As for `CCc1c(F)ccc2cc(O)cc(N3CCc4c(nc(OC[C@@]56CCCN5C[C@H](F)C6)nc4N4CCCC(C(=O)n5cccn5)CC4)C3)c12` (stereo partly drawn) [Example 143, (1-(7-(8-ethyl-7-fluoro-3-hydroxynaphthalen-1-yl)-2-(((2R,7aS)-2-fluorotetrahydro-1H-pyrrolizin-7a(5H)-yl)methoxy)-5,6,7,8-tetrahydropyrido[3,4-d]pyrimidin-4-yl)azepan-4-yl)(1H-pyrazol-1-yl)methanone], the half-inhibitory concentration (IC50) at KRas G12C was 56 nM; on KRas G12S it was 8 nM; on KRas WT, 166 nM; in assay [2] it was 38 nM; in assay [3] it was 931 nM.

With `CCc1c(F)ccc2cc(O)cc(N3CCc4c(nc(OC[C@@]56CCCN5C[C@H](F)C6)nc4N4CCCC(C(=O)n5ccc(C)n5)C4)C3)c12` (stereo partly drawn) [Example 144, (1-(7-(8-ethyl-7-fluoro-3-hydroxynaphthalen-1-yl)-2-(((2R,7aS)-2-fluorotetrahydro-1H-pyrrolizin-7a(5H)-yl)methoxy)-5,6,7,8-tetrahydropyrido[3,4-d]pyrimidin-4-yl)piperidin-3-yl)(3-methyl-1H-pyrazol-1-yl)methanone], the IC50 on KRas G12C is 50 nM; on KRas G12S it was 32 nM; on KRas WT, 68 nM; in assay [2], 5900 nM; in assay [3], 178 nM.

With `CCc1c(F)ccc2cc(O)cc(-c3ncc4c(N5CCC(C(=O)Nc6ccccn6)CC5)nc(OC[C@@]56CCCN5C[C@H](F)C6)nc4c3F)c12` [Example 153, 1-(7-(8-ethyl-7-fluoro-3-hydroxynaphthalen-1-yl)-8-fluoro-2-(((2R,7aS)-2-fluorotetrahydro-1H-pyrrolizin-7a(5H)-yl)methoxy)pyrido[4,3-d]pyrimidin-4-yl)-N-(pyridin-2-yl)piperidine-4-carboxamide], the IC50 was found to be 439 nM at KRas G12C; 642 nM on KRas G12S; 138 nM at KRas WT; 4130 nM in assay [2]; 1760 nM in assay [3].

For `CCc1c(F)ccc2cc(O)cc(-c3ncc4c(N5CC[C@H]6[C@@H](C5)[C@H]6C(=O)n5ccc(C)n5)nc(OC[C@@]56CCCN5C[C@H](F)C6)nc4c3F)c12` [Example 156, ((1R,6S,7S)-3-(7-(8-ethyl-7-fluoro-3-hydroxynaphthalen-1-yl)-8-fluoro-2-(((2R,7aS)-2-fluorotetrahydro-1H-pyrrolizin-7a(5H)-yl)methoxy)pyrido[4,3-d]pyrimidin-4-yl)-3-azabicyclo[4.1.0]heptan-7-yl)(3-methyl-1H-pyrazol-1-yl)methanone], the IC50 at KRas G12C was determined as 89 nM; on KRas G12S, 15 nM; in assay [1] it was 2090 nM; in assay [2], 38 nM; in assay [3] it was 2350 nM.

For the molecule `CCc1c(F)ccc2cc(O)cc(-c3ncc4c(N(C)CCCC(=O)N(C)C(C)=O)nc(OC[C@@]56CCCN5C[C@@]5(CC5(F)F)C6)nc4c3F)c12` [Example 293, N-acetyl-4-((2-(((1S,7a'S)-2,2-difluorodihydro-1′H,3′H-spiro[cyclopropane-1,2′-pyrrolizin]-7a′ (5′H)-yl)methoxy)-7-(8-ethyl-7-fluoro-3-hydroxynaphthalen-1-yl)-8-fluoropyrido[4,3-d]pyrimidin-4-yl)(methyl)amino)-N-methylbutanamide], the IC50 at KRas G12C turned out to be 72 nM; at KRas G12S, 21 nM; at KRas WT, 219 nM; in assay [1] it was 699 nM; in assay [2], 67 nM.

The values are drawn from patent publication US20260356856A1, “KRAS G12S AND G12C INHIBITORS” (MIRATI THERAPEUTICS, INC., priority 2023, published 2026).
